What was measured:
[1] = target: T1, mature p20 forms of caspase-7 (Homo sapiens, UniProt P55210); experiment: Inhibitor specificity in hypotonic 293 extracts, mature p20 caspase-7; format: biochemical; conditions: inhibitor 20 μM for 5 min, then KMB01 30 min
T1 construct: p20 is mature large subunit of caspase-7 with N-terminal peptide removed; processing of the zymogen to the large and small subunits by activity of the initiator caspases; endogenous in cells
T1 sequence (P55210 24-198 limits assumed): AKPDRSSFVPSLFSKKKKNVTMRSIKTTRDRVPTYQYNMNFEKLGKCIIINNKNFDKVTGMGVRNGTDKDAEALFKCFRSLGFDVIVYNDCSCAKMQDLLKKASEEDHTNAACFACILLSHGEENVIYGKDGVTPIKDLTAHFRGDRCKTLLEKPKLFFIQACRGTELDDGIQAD
T1 sequence (P55210 207-303 limits assumed): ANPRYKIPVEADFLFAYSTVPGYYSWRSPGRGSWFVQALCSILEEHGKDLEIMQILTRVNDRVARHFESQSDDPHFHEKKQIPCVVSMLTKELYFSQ
Description: FIGS. 6 A-E illustrate that full-length active caspase-7 has unique inhibitor specificity and is processed to mature forms by downstream executioner caspases. (A) The caspase-3 specific inhibitor causes accumulation of a catalytically active full-length form of caspase-7. Cytosolic extracts from 293 cells were activated with cytochrome c/dATP for the indicated times followed by labeling with KMB01 (left panel) and western blotting with a caspase-7 specific antibody (right panel) as in FIG. 5A. […] (B) The exact same experiment as (A) except extracts from MCF-7 cells were used in place of 293 extracts. (**) indicates forms of caspase-7 that are likely a result of the alternative transcription start site at methionine-45 (C) Quantification of the relative activity of FL-C7 in uninhibited 293 extracts (from FIG. 5A), AB06 treated 293 extracts (from (A)) and uninhibited MCF-7 extracts (from (B)) (D) Inhibitor specificity of full-length and processed forms of caspase-7. Extracts (293) were activated for 5 min with cytochrome c/dATP and then incubated with NP-capped AOMK inhibitors containing the indicated primary amino acid sequences for 5 minutes before KMB01 was added and allowed to label residual caspase active sites for 30 minutes. Samples were analyzed by SDS-PAGE followed by biotin blotting using strepavidin-HRP (left panel) or western blotting for caspase-7 (right panel). Identities of labeled caspases are indicated. (E) Specificity of AB06 after prolonged incubation times. Extracts were treated with AB06 at the indicated concentrations simultaneously with cytochrome c/dATP. At the indicated times after activation, samples were labeled with KMB01 (10 μM) for 30 minutes. Labeled caspases were resolved by SDS-PAGE analysis followed by biotin blotting using strepavidin-HRP.
An additional surprising finding from the inhibitor studies was the overall lack of inhibition of the FL-C7 species by AB06 relative to mature p20 forms of caspase-7. This was surprising since the sequence of AB06 (NP-D3VD-AOMK) differs from the KMB01 probe sequence (Bio-EVD-AOMK) only at the P3 residue. […] We therefore wanted to use inhibitors to compare the ability of different P3 elements to bind to full-length and p20 mature forms of caspase-7. […] Samples were analyzed for active site labeling and protein levels of both full-length and p20 forms of caspase-7 were monitored by western blot (FIG. 6D).
Hypotonic 293 extracts (73 μg of total protein) were activated at 37° C. for 5 minutes as described above. […] Samples (13.5 μg total protein) were analyzed by SDS-PAGE and biotin blotting as described above

Caspase-9 = target: T2, Caspase-9 (Homo sapiens, UniProt P55211); experiment: Kinetic compound screening, progress curve method, caspase-9; format: biochemical; conditions: NI = no inhibition at concentrations tested; for Ki(app) Caspase-9: Table III, Ki(app) = Kass or Kobs/I, 50 nM active caspase-9; for Caspase-9 Ki (app): Table IV
T2 sequence (P55211 1-416): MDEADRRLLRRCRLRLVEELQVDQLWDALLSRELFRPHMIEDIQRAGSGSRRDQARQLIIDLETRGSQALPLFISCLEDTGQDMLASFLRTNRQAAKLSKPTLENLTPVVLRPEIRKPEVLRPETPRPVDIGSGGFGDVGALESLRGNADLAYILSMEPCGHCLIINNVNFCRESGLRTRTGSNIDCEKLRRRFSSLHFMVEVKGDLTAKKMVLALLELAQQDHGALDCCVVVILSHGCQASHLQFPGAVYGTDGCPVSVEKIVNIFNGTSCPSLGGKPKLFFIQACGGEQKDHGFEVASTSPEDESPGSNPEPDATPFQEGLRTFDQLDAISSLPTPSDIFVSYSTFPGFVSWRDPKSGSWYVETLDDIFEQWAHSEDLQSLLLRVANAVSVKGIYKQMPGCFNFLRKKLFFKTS
Summary of the method: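 Progress-curve method under pseudo-first-order kinetics, giving Ki(app) (kobs/I, M^−1s^−1), in caspase reaction buffer. Active enzyme at 5 nM (caspase-3, -7), 10 nM (caspase-8) or 50 nM (caspase-9), preactivated at 37 °C for 5, 10 or 40 min respectively. Some caspase-9 compounds also run with 1 M sodium citrate replacing sucrose.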

| Ki(app) Caspase-9 (Caspase-9) | Caspase-9 Ki (app) (Caspase-9) | Molecule | block of KMB01 labeling of mature p20 caspase-7 [1] |
| --- | --- | --- | --- |
| <5,000 M^−1s^−1 | <5,000 M-1s-1 | Cc1cccc(C)c1C(=O)OCC(=O)[C@H](CC(=O)O)NC(=O)[C@@H](NC(=O)[C@H](CCC(=O)O)NC(=O)[C@H](CC(=O)O)NC(=O)Cc1ccc(O)c([N+](=O)[O-])c1)C(C)C [AB09, Np-D-E- V-D-DMBA] | efficiently blocked labeling |
| 175,210 M^−1s^−1 | 210 M⁻¹ s⁻¹ | Bio-EVD-AOMK [KMB01, reference compound] | – |
| – | – | Cc1cccc(C)c1C(=O)OCC(=O)[C@H](CC(=O)O)NC(=O)[C@@H](NC(=O)[C@H](Cc1ccncc1)NC(=O)[C@H](CC(=O)O)NC(=O)Cc1ccc(O)c([N+](=O)[O-])c1)C(C)C [AB06, Np-D-3-V-D-DMBA] | efficiently blocked labeling |

Source: patent US20100068150A1, “Selective Caspase Inhibitors” (The Board of Trustees of the Leland Stanford Junior …, priority 2006, published 2010)
